Structures can show the parent of a compound that is named as a salt.
Experiments:
CYP2C9 = biological target: T1, CYP2C9 (Homo sapiens, UniProt P11712); experiment: Human CYP fingerprinting, sulfaphenazole inhibition; type: in vitro ADME; details: 4 μM, human liver microsomes, 30 min, 5 μM sulfaphenazole
T1 construct: pooled, mixed gender, human liver microsomes; from tissue; host or cells: pooled, mixed gender human liver microsomes
Description: (§1) CYP fingerprinting is well established technique and is used as an indication of potential risk of drug-drug interactions in the pharmaceutical sciences. Compounds of the present invention may be assayed by well known methods, essentially as follows: Compounds are incubated at 37° C. at a final concentration of 4 μM with pooled, mixed gender, human liver microsomes and 1 mM NADPH (Nicotine Adenine Dinucleotide Phosphate) (final conc.) for 0 and 30 min. without any CYP inhibitor and with each CYP inhibitor in separate incubations for 30 min. Each inhibitor is specific for an individual cytochrome P450. The specific inhibitors used for CYPs 2C9, 2D6 and 3A were sulfaphenazole, quinidine and ketoconazole, respectively. Ketoconazole (CYP3A) is made up at 25 mM in DMSO and then diluted in buffer to a final concentration of 10 μM. Quinidine (CYP2D6) is made up at 5 mM in 50/50 acetonitrile/water and then diluted in buffer to a final concentration of 10 μM. Sulfaphenazole (CYP2C9) is made up at 100 mM in DMSO and then diluted in buffer to a final concentration of 5 μM. Samples are analyzed by LC-MS in positive or negative electrospray mode using a Waters Acquity Ultra Performance LC coupled to a MicroMass Q-T of-2 mass spectrometer.
(§2) Data are analyzed using MetaboLynx™ version 4.1. […]

CYP3A = experiment: Human CYP fingerprinting, ketoconazole inhibition; type: in vitro ADME; details: 4 μM, human liver microsomes, 30 min, 10 μM ketoconazole
Description: as §1, §2

Rat oral bioavailability = type: in vivo; details: Sprague-Dawley, plasma, fasted male SD rats, IV 0.25 mg/kg (20% Pharmasolve, 10% HPBCD, pH 3), PO 1 mg/kg (1% CMC, 0.5% SLS, 0.5% AF), mean±s.d, n=3, based on AUC0-∞
Description: Cohorts of three or four 250-450 gram male Sprague-Dawley rats or approximately 10 kg Beagle dogs (female or male) are used. […] Dogs are administered i.v. by cannulated cephalic vein and blood collections are by jugular vein. Animals are first dosed at 0.25 mg/kg i.v. and blood samples (0.2 mL) are then collected using EDTA as an anticoagulant at 0.0830, 0.25, 0.50, 1, 2, 4, 8, 12, 24, 48, 72, 96, and 120 hours. Next after at least two days and after 18-24 hours fasting, the animals are dosed at 1.0 mg/kg by oral gavage. During the course of a study the total of blood (ml) collected is not to exceed 1% of total body weight in grams. Should larger blood volumes be required, the sampled blood volume is replace with heparinized whole blood from a donor animal. When using a cross-over study design, rats receive a volume of heparinized whole blood following the final sample of each study day approximately equal to that removed during study.
Compound plasma concentrations are measured by LC/MS/MS assays. Data are then analyzed using standard non-compartmental pharmacokinetic analysis. Oral bioavailability is calculated as: (AUC0-infinity,oral/AUC0-infinity,i.v.)×(Dose,i.v./Dose,oral)×100%

rCB-1 = biological target: T2, rCB-1 (Rattus norvegicus, UniProt P20272); experiment: rCB1-CHO antagonist mode SPA GTP-γ-35S binding assay; type: biochemical; details: antagonist mode vs methanandamide; read-out: rCB-1 SPA GTPγS CHO Membrane Antagonist Kb
T2 construct: purchased Applied Cell Sciences, Rockville, Md; host or cells: CHO cell membranes
Description: Compounds of the present invention may be tested for functional activity at the CB-1 and CB-2 receptors in both agonist and antagonist modes using SPA (Scintillation Proximity Assay) based GTP-γ-^35S binding assays. All assay components are prepared in assay buffer (20 mM HEPES, 100 mM NaCl, 5 mM MgCl2, pH 7.4) at room temperature. Semi-log dilutions of test compound are prepared in assay buffer containing BSA (0.125% final conc.) for the agonist mode assays. For the antagonist mode assays, test compounds are prepared in the same manner but also include an 80% efficacious dose of a full agonist (methanandamide). GTP-γ^35S binding for the antagonist assay may be measured in a 96 well format using a modification of an antibody capture technique previously described. (DeLapp, N W, et al. (1999) J Pharmacol Exp Ther 289:946-955.) The CB-2 receptor agonist activity may be measured using a similar method using hCB2-Sf9 membranes. The CB-1 receptor agonist activity may be measured using a whole membrane capture technique using hCB1-CHO membranes. All incubations are done at room temperature.
hCB1-CHO or rCB1-CHO membranes (Applied Cell Sciences, Rockville, Md.) and GDP (1 μM final) are added to ice cold assay buffer and homogenized. […] Plates are then centrifuged at 700×g for 10 min. and the radioactivity counted.
Data are analyzed as follows: Background is subtracted from all wells. […] Percent antagonist inhibition is calculated by first normalizing the data to the signal generated by a saturating concentration of the full agonist (methanandamide). Then the data are analyzed using a 4-parameter logistic reduced fit (Activity Base™ and XLFit3™ from IDBS, Emeryville, Calif.). Kb values are determined using a modification of the Cheng-Prusoff relationship: Kb=IC50/(1+[agonist]/EC50), where “IC50” is determined from a four parameter fit of displacement curves, “[agonist]” is the agonist challenge concentration (nM), and “EC50” is determined from a four parameter fit of a full agonist concentration response curve (Cheng and Prusoff 1973). […]

T2 sequence (P20272 whole entry): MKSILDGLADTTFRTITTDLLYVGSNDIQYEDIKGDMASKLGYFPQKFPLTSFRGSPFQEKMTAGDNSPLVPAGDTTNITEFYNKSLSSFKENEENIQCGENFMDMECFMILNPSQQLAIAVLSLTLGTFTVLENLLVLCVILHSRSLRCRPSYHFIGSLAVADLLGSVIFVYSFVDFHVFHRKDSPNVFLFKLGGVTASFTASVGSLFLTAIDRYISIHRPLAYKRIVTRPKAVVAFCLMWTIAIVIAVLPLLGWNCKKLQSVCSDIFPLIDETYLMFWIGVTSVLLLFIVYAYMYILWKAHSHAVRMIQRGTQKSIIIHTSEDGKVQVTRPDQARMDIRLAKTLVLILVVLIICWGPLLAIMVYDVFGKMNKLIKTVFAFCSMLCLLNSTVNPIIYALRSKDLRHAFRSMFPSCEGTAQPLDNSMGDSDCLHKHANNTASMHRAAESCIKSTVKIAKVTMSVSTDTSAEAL
T1 sequence (P11712 whole entry): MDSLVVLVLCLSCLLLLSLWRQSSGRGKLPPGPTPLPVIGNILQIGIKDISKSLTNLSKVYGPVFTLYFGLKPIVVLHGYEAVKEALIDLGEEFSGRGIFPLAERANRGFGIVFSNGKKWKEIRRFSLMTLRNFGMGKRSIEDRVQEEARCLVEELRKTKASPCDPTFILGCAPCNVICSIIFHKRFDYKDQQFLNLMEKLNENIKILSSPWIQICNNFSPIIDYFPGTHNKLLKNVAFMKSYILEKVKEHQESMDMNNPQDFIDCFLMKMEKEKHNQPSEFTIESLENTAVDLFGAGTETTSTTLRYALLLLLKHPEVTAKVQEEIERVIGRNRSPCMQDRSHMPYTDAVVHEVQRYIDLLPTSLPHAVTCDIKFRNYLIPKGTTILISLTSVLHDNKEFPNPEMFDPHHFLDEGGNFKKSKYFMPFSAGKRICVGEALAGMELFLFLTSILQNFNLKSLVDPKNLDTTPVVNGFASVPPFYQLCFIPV

- Risk of Drug Drug Interaction (DDI) CYP3A (CYP3A): Low
- bioavailability (Rat oral bioavailability): 40 ± 6%
- Kb (rCB-1): 0.196 nM
Compound: CC(C)(N[C@@H]1C[C@H](c2cccc(C(F)(F)F)c2)N(c2ccc(OC(F)(F)F)cc2)C1=O)c1cccc(C(F)(F)F)n1 [28 HCl salt, (3R,5R)-3-[1-methyl-1-(6-trifluoromethyl-pyridin-2-yl)-ethylamino]-1-(4-trifluoromethoxy-phenyl)-5-(3-trifluoromethyl-phenyl)-pyrrolidin-2-one]
- Risk of Drug Drug Interaction (DDI) CYP2C9 (CYP2C9): low (a reduction in metabolite peak area of less than 30% (relative to the uninhibited control incubation) receives a designation of low risk of Drug Drug Interaction (DDI))

— patent US8426448B2, “1,5-diphenyl-pyrrolidin-2-one compounds as CB-1 ligands” (Eli Lilly and Company, priority 2008, dated 2013)
